Results: patent US20260365653A1, “IRREVERSIBLE MUTEGFR INHIBITORS” (Bayer Aktiengesellschaft, priority 2022, published 2026)
Values joined by “and” are separate entries in the source; they are usually repeats but may differ in a detail not shown here. Equal values may be shown once.

Legend:
[1] = target: T1, mutEGFR (D770_N771insSVD) (Homo sapiens, UniProt P00533, DUP768-770); assay: Exon20-Mutant-EGFR (D770_N771insSVD) kinase assay (TR-FRET); format: biochemical
T1 construct: GST-EGFR #3 (SVD between D770 and N771); made in house; host or cells: Sf9 insect cells (baculovirus)

[2] = target: T2, mutEGFR (D770_N771insNPG, T790) (Homo sapiens, UniProt P00533, INS770NPG/T790M); assay: mutEGFR (D770_N771insNPG, T790) kinase assay; format: biochemical; details: Table 2a, D770_N771insNPG
T2 construct: exact insNPG construct not described; in-house EGFR proteins were N-terminal GST fusions from baculovirus/insect cells (borders R669-A1210 given only for WT, insSVD, insASV)
Description: The different EGFR proteins used in the biochemical kinase activity inhibition assays were generated inhouse by expression in insect cells using Baculo Virus system and subsequent purification as described in the following paragraphs.
The cDNAs encoding the various protein sequences from human EGFR human (P00533) were optimized for expression in eukaryotic cells and synthesized by the GeneArt Technology at Life Technologies.

BA/F3 (insSVD) cells = assay: Ba/F3-EGFR-insSVD cell survival assay (Cell Titer-Glo); format: cell-based
How it was run: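 CellTiter-Glo luminescence read after 48 h compound exposure at 37° C. Cells: IL-3-independent Ba/F3 lines transduced with EGFR-insSVD or EGFR-insSVD T790M, maintained on 10 ng/ml EGF and seeded at 4000 per well.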

[3] = mutEGFR (D770_N771insSVD) kinase assay IC50, Table 2a, D770_N771insSVD, 2 mM ATP
[4] = Mus musculus, BaF3, 48 h, Table 3a, cell survival, Cell Titer-Glo, with 10 ng/ml EGF, without IL-3
[5] = mutEGFR (D770_N771insSVD) kinase assay IC50, Table 2b (from US Priority Patent Application), mutEGFR D770_N771insSVD

T1 sequence (P00533 with tags, fused parts or gaps DUP768-770): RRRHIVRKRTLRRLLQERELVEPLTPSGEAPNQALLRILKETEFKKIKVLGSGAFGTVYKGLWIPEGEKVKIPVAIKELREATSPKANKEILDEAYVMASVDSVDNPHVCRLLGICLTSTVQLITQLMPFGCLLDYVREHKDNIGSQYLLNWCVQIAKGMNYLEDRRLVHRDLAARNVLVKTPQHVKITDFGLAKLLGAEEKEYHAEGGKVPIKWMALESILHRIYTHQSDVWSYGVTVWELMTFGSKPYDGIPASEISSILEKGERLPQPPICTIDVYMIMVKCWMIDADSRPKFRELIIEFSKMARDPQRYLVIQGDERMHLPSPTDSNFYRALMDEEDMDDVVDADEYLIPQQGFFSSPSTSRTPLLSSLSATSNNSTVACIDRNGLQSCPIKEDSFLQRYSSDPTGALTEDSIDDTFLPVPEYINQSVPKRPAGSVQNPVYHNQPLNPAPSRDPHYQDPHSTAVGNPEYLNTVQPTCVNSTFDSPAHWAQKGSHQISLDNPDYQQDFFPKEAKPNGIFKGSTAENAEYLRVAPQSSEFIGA
T2 sequence (P00533 with tags, fused parts or gaps INS770NPG/T790M limits assumed): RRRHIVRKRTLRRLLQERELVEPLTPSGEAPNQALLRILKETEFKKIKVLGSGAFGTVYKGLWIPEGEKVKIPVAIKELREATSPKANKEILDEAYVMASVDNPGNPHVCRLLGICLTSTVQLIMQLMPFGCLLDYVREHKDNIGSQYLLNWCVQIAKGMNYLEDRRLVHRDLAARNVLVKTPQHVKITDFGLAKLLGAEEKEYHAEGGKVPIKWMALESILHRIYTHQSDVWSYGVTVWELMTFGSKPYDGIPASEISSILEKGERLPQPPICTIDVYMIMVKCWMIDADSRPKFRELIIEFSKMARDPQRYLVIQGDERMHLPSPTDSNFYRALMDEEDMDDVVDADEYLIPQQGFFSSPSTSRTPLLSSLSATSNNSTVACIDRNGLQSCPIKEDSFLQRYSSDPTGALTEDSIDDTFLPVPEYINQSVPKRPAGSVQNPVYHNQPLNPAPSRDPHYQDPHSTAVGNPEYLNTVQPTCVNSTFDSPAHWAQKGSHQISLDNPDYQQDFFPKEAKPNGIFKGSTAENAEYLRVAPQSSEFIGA

Structure (SMILES) | IC50 [1, 3] [µM] | IC50 [2] | IC50 [1, 5] [µM] | IC50 (BA/F3 (insSVD) cells; [4]) [µM] | IC50 (BA/F3 (insSVD) cells; Table 3a, cell survival, Cell Titer-Glo, with 10 ng/ml EGF, without IL-3, 48 h) [µM] | IC50 (BA/F3 (insSVD) cells; Mus musculus, BaF3, 48 h, Table 3b, Ba/F3 EGFR-insSVD) [µM]
C=CC(=O)N1CCn2nc(Nc3ccc(Cl)cc3F)c(-c3ccnc4[nH]cc(C)c34)c2C1 [Example 92, 1-[2-(4-chloro-2-fluoroanilino)-3-(3-methyl-1H-pyrrolo[2,3-b]pyridin-4-yl)-6,7-dihydropyrazolo[1,5-a]pyrazin-5(4H)-yl]prop-2-en-1-one] | 0.0246 | 0.0536 µM | – | 0.125 | – | –
O=C(/C=C/CN1CCOCC1)N1CCn2nc(-c3ccc(F)cc3)c(-c3ccncc3)c2C1 [Example 63, (2E)-1-[2-(4-fluorophenyl)-3-(pyridin-4-yl)-6,7-dihydropyrazolo[1,5-a]pyrazin-5(4H)-yl]-4-(morpholin-4-yl) but-2-en-1-one] | 0.00264 | 0.009 µM | – | 0.221 | – | –
C=C(C)C(=O)N1CCn2nc(-c3ccc(F)cc3)c(-c3ccncc3)c2C1 [Example 24, 1-[2-(4-fluorophenyl)-3-(pyridin-4-yl)-6,7-dihydropyrazolo[1,5-a]pyrazin-5(4H)-yl]-2-methylprop-2-en-1-one] | 1.15 | 14.6 µM and > 20 µM | 1.15 | 9.98 | – | –
Cc1c[nH]c2nccc(-c3c(-c4ccc(Cl)cc4)nn4c3CN(C(=O)/C=C/CN(C)C)CC4)c12 [Example 183, (2E)-1-[2-(4-chlorophenyl)-3-(3-methyl-1H-pyrrolo[2,3-b]pyridin-4-yl)-6,7-dihydropyrazolo[1,5-a]pyrazin-5(4H)-yl]-4-(dimethylamino)but-2-en-1-one] | 0.0968 | 0.217 µM | – | 0.0656 | – | –
C=CC(=O)N1CCn2nc(-c3ccc(F)cc3)c(-c3ccnc(Nc4ccccc4)c3)c2C1 [Example 20, 1-[3-(2-anilinopyridin-4-yl)-2-(4-fluorophenyl)-6,7-dihydropyrazolo[1,5-a]pyrazin-5(4H)-yl]prop-2-en-1-one] | 0.00354 | 0.00913 µM | 0.00354 | 0.617 | – | 0.617
C=CC(=O)N1CCn2nc(-c3ccc(C(F)(F)F)c(F)c3)c(-c3ccncc3)c2C1 [Example 134, 1-{2-[3-fluoro-4-(trifluoromethyl)phenyl]-3-(pyridin-4-yl)-6,7-dihydropyrazolo[1,5-a]pyrazin-5(4H)-yl}prop-2-en-1-one] | 0.0021 | 0.00918 µM | – | 0.0651 | – | –
C=CC(=O)N1CCn2nc(-c3cc(Cl)ccc3F)c(-c3ccnc4[nH]cc(C)c34)c2C1 [Example 180, 1-[2-(5-chloro-2-fluorophenyl)-3-(3-methyl-1H-pyrrolo[2,3-b]pyridin-4-yl)-6,7-dihydropyrazolo[1,5-a]pyrazin-5(4H)-yl]prop-2-en-1-one] | 0.158 | 0.0615 µM | – | 0.112 | – | –
C=CC(=O)N1CCn2nc(-c3ccc(C#N)cc3)c(-c3ccncc3)c2C1 [Example 43, 4-[5-acryloyl-3-(pyridin-4-yl)-4,5,6,7-tetrahydropyrazolo[1,5-a]pyrazin-2-yl]benzonitrile] | 0.00316 | 0.0185 µM | – | 0.131 | – | –
C=CC(=O)N1CCn2nc(-c3ccc(C(F)(F)F)nc3)c(-c3ccncc3)c2C1 [Example 188, 1-[3-(pyridin-4-yl)-2-[6-(trifluoromethyl)pyridin-3-yl]-6,7-dihydropyrazolo[1,5-a]pyrazin-5(4H)-yl]prop-2-en-1-one] | 0.155 | 0.0112 µM | – | 0.149 | – | –
CN(C)C/C=C/C(=O)N1CCn2nc(-c3ccc4nn[nH]c4c3)c(-c3ccncc3)c2C1 [Example 198, (2E)-1-[2-(1H-benzotriazol-6-yl)-3-(pyridin-4-yl)-6,7-dihydropyrazolo[1,5-a]pyrazin-5(4H)-yl]-4-(dimethylamino)but-2-en-1-one] | 0.476 | 1.07 µM | – | 6.39 | – | –
COc1ccc(-c2nn3c(c2-c2ccncc2)CN(C(=O)/C=C/CN(C)C)CC3)c(F)c1 [Example 160, (2E)-4-(dimethylamino)-1-[2-(2-fluoro-4-methoxyphenyl)-3-(pyridin-4-yl)-6,7-dihydropyrazolo[1,5-a]pyrazin-5(4H)-yl]but-2-en-1-one] | 0.00148 | 0.00658 µM | – | 0.973 | – | –
C=CC(=O)N1Cc2c(-c3ccncc3)c(-c3ccc(Cl)cc3)nn2C[C@H]1C [Example 123, 1-[(6R)-2-(4-chlorophenyl)-6-methyl-3-(pyridin-4-yl)-6,7-dihydropyrazolo[1,5-a]pyrazin-5(4H)-yl]prop-2-en-1-one] | 0.00119 | 0.00195 µM | – | 0.0237 | – | –
C=CC(=O)N1CCn2nc(Nc3ccc(C(F)(F)F)cc3)c(-c3ccncc3)c2C1 [Example 97, 1-[3-(pyridin-4-yl)-2-[4-(trifluoromethyl)anilino]-6,7-dihydropyrazolo[1,5-a]pyrazin-5(4H)-yl]prop-2-en-1-one] | 0.626 | 3.8 µM | – | 4.36 | – | –
Cc1c[nH]c2nccc(-c3c(-c4ccc(C(F)(F)F)cc4)nn4c3CN(C(=O)/C=C/CN(C)C)[C@@H](C)C4)c12 [Example 254, (2E)-4-(dimethylamino)-1-[(6S)-6-methyl-3-(3-methyl-1H-pyrrolo[2,3-b]pyridin-4-yl)-2-[4-(trifluoromethyl)phenyl]-6,7-dihydropyrazolo[1,5-a]pyrazin-5(4H)-yl]but-2-en-1-one] | 0.036 | 0.437 µM | – | 0.0399 | – | –
C=CC(=O)N1CCn2nc(-c3ccc(F)c4ccoc34)c(-c3ccncc3)c2C1 [Example 105, 1-[2-(4-fluoro-1-benzofuran-7-yl)-3-(pyridin-4-yl)-6,7-dihydropyrazolo[1,5-a]pyrazin-5(4H)-yl]prop-2-en-1-one] | 0.00148 | 0.00157 µM | – | 0.233 | – | –

Now those with a lower IC50 [1, 3], led by results:

IC50 [1, 3] [µM] | IC50 [2] | IC50 [1, 5] [µM] | Structure (SMILES) | IC50 (BA/F3 (insSVD) cells; [4]) [µM] | IC50 (BA/F3 (insSVD) cells; Table 3a, cell survival, Cell Titer-Glo, with 10 ng/ml EGF, without IL-3, 48 h) [µM] | IC50 (BA/F3 (insSVD) cells; Mus musculus, BaF3, 48 h, Table 3b, Ba/F3 EGFR-insSVD) [µM]
0.000132 | 0.000351 µM | – | C=CC(=O)N1Cc2c(-c3ccncc3)c(-c3ccc(Cl)cc3F)nn2C[C@H]1C [Example 271, 1-[(6R)-2-(4-chloro-2-fluorophenyl)-6-methyl-3-(pyridin-4-yl)-6,7-dihydropyrazolo[1,5-a]pyrazin-5(4H)-yl]prop-2-en-1-one] | 0.225 | – | –
0.000136 | 0.000406 µM | – | O=C(/C=C/CN1CCCC1)N1CCn2nc(-c3ccc(Cl)cc3)c(-c3ccncc3)c2C1 [Example 171, (2E)-1-[2-(4-chlorophenyl)-3-(pyridin-4-yl)-6,7-dihydropyrazolo[1,5-a]pyrazin-5(4H)-yl]-4-(pyrrolidin-1-yl)but-2-en-1-one] | 0.0337 | – | –
0.000183 | 0.000807 µM | – | O=C(/C=C/C(F)F)N1CCn2nc(-c3ccc(Cl)cc3F)c(-c3ccncc3)c2C1 [Example 74, (2E)-1-[2-(4-chloro-2-fluorophenyl)-3-(pyridin-4-yl)-6,7-dihydropyrazolo[1,5-a]pyrazin-5(4H)-yl]-4,4-difluorobut-2-en-1-one] | 0.034 | – | –
0.000204 | 0.000551 µM | – | C=CC(=O)N1CCn2nc(-c3ccc(Cl)cc3F)c(-c3ccncc3)c2C1C (single isomer, unassigned; isomer 1) [Example 278, 1-[2-(4-chloro-2-fluorophenyl)-4-methyl-3-(pyridin-4-yl)-6,7-dihydropyrazolo[1,5-a]pyrazin-5(4H)-yl]prop-2-en-1-one (isomer 1)] | – | 0.00907 | –
0.000731 | 0.00243 µM | – | O=C(C#CCN1CCOCC1)N1CCn2nc(-c3ccc(Cl)cc3F)c(-c3ccncc3)c2C1 [Example 85, 1-[2-(4-chloro-2-fluorophenyl)-3-(pyridin-4-yl)-6,7-dihydropyrazolo[1,5-a]pyrazin-5(4H)-yl]-4-(morpholin-4-yl) but-2-yn-1-one] | 0.0346 | – | –
0.000997 | 0.00705 µM | – | C=CC(=O)N1CCn2nc(-c3ccc(Cl)cc3F)c(-c3ccnc(NC)c3)c2C1 [Example 53, 1-[2-(4-chloro-2-fluorophenyl)-3-[2-(methylamino)pyridin-4-yl]-6,7-dihydropyrazolo[1,5-a]pyrazin-5(4H)-yl]prop-2-en-1-one] | 0.0442 | – | –
0.000211 | 0.0003 µM | – | CN(C)CC#CC(=O)N1CCn2nc(-c3ccc(Cl)cc3F)c(-c3ccncc3)c2C1 [Example 72, 1-[2-(4-chloro-2-fluorophenyl)-3-(pyridin-4-yl)-6,7-dihydropyrazolo[1,5-a]pyrazin-5(4H)-yl]-4-(dimethylamino)but-2-yn-1-one] | 0.0179 | – | –
0.000981 | 0.00293 µM | – | C=CC(=O)N1CCn2nc(-c3ccc(C)cc3)c(-c3ccncc3)c2C1 [Example 138, 1-[2-(4-methylphenyl)-3-(pyridin-4-yl)-6,7-dihydropyrazolo[1,5-a]pyrazin-5(4H)-yl]prop-2-en-1-one] | 0.0232 | – | –
0.0006 | 0.00212 µM | – | CN(C)C/C=C/C(=O)N1CCn2nc(-c3ccc(Cl)c(F)c3)c(-c3ccncc3)c2C1 [Example 25, (2E)-1-[2-(4-chloro-3-fluorophenyl)-3-(pyridin-4-yl)-6,7-dihydropyrazolo[1,5-a]pyrazin-5(4H)-yl]-4-(dimethylamino)but-2-en-1-one] | 0.0623 | – | –
